Results from US12180226B2, “Spirotricycle RIPK1 inhibitors and methods of uses thereof” (Merck Sharp & Dohme LLC, priority 2021, dated 2024).
Structures can show the parent of a compound that is named as a salt.

Biological target: RIPK1 (recombinant GST-RIPK1 kinase domain, residues 1-327) (Homo sapiens (Human), UniProt Q13546)
Test: RIPK1-ADP-Glo Enzymatic Assay
Format: biochemical
Conditions: ADP-Glo; 25 nM GST-RIPK1, 300 μM ATP; assay lower limit ~25 nM; read-out: RIPK1 V0 Ec50
Method in brief: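 Inhibition of ADP formation was measured after compound and enzyme (25 nM) were pre-incubated for 30 minutes at ambient temperature and the kinase reaction ran for 150 minutes at 300 μM ATP with dephosphorylated MBP substrate. EC50 values come from ten-point curves fitted non-linearly.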

Chain of RIPK1 (recombinant GST-RIPK1 kinase domain, residues 1-327) (Q13546 1-327): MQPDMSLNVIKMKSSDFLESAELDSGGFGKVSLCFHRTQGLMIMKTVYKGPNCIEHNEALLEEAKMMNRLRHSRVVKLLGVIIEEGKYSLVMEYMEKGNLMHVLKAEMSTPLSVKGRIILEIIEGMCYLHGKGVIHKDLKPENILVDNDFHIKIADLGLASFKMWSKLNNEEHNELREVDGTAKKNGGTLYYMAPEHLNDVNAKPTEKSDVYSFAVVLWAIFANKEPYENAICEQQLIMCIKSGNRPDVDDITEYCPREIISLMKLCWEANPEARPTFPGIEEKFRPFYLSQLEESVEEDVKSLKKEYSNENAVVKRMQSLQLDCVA

| SMILES | EC50 |
| --- | --- |
| Cc1ocnc1C(=O)N1CCC2(CC1)O[C@@H]1CC[C@@H](c3ccccc3)N1C2=O [Example 6.146, (5′S,7a′R)-1-(5-methyl-1,3-oxazole-4-carbonyl)-5′-phenyl-tetrahydro-3′H-spiro [piperidine-4,2′-pyrrolo[2,1-b][1,3]oxazol]-3′-one] | 34.9 nM |
| Cc1nc(N2CCC3(CC2)O[C@@H]2CC[C@@H](c4ccccc4)N2C3=O)ncc1-c1ncco1 [Example 21.11, (5′S,7a′R)-1-[4-methyl-5-(1,3-oxazol-2-yl)pyrimidin-2-yl]-5′-phenyltetrahydro-3′H-spiro[piperidine-4,2′-pyrrolo[2,1-b][1,3]oxazol]-3′-one] | < 25 nM |
| Cc1cccc(C(=O)N2CCC3(CC2)O[C@@H]2CC[C@@H](c4cc(F)cc(F)c4)N2C3=O)n1 [Example 6.13, (5′S,7a′R)-5′-(3,5-difluorophenyl)-1-(6-methylpyridine-2-carbonyl)tetrahydro-3′H-spiro[piperidine-4,2′-pyrrolo[2,1-b] [1,3]oxazol]-3′-one] | 60 nM |
| O=C1N2[C@@H](CC[C@H]2c2cc(F)cc(F)c2)OC12CCN(c1ncnn3ccnc13)CC2 [Example 4.228, (5′S,7a′R)-5′-(3,5-difluorophenyl)-1-(imidazo[2,1-f] [1,2,4]triazin-4-yl)tetrahydro-3′H-spiro[piperidine-4,2′-pyrrolo[2,1-b] [1,3]oxazol]-3′-one] | 78.9 nM |
| O=C(c1cc(O)ccc1F)N1CCC2(CC1)O[C@@H]1CC[C@@H](c3cc(F)cc(F)c3)N1C2=O [Example 5.57, (5′S,7a′R)-5′-(3,5-difluoro-phenyl)-1-(2-fluoro-5-hydroxybenzoyl)tetra-hydro-3′H-spiro[piperidine-4,2′-pyrrolo[2,1-b]oxazol]-3'-one] | < 25 nM |
| C#Cc1ccc(N2CCC3(CC2)O[C@@H]2CC[C@@H](c4ccccc4)N2C3=O)n2ncnc12 [Example 21.24, (5′S,7a′R)-1-(8-ethynyl[1,2,4]triazolo [1,5-a]pyridin-5-yl)-5′-phenyltetrahydro-3′H-spiro[piperidine-4,2′-pyrrolo[2,1-b][1,3]oxazol]-3′-one] | < 25 nM |
| O=C1N2[C@@H](CC[C@H]2c2cc(F)cc(F)c2)OC12CCN(c1ccc(C3CCC3)c3ccnn13)CC2 [Example 18.1, (5′S,7a′R)-1-(4-Cyclobutylpyrazolo[1,5-a]pyridin-7-yl)-5′-(3,5-difluorophenyl)tetrahydro-3′H-spiro[piperidine-4,2′-pyrrolo[2,1-b]oxazol]-3′-one, TFA salt] | 159 nM |
| CC(F)(F)c1ccnc(N2CCC3(CC2)O[C@@H]2CC[C@@H](c4ccccc4)N2C3=O)c1 [Example 4.262, (5′S,7a′R)-1-[4-(1,1-difluoroethyl)pyridin-2-yl]-5′-phenyltetrahydro-3′H-spiro[piperidine-4,2′-pyrrolo[2,1-b] [1,3]oxazol]-3′-one] | 256 nM |
| N#Cc1ccc(N2CCC3(CC2)O[C@@H]2CC[C@@H](c4ccccc4)N2C3=O)c(F)c1 [Example 4.73, 3-fluoro-4-[(5′S,7a′R)-3′-oxo-5′-phenyltetrahydro-1H,3′H-spiro[piperidine-4,2′-pyrrolo[2,1-b] [1,3]oxazol]-1-yl]benzonitrile] | < 25 nM |
| Cc1ccc(F)c(C(=O)N2CCC3(CC2)O[C@@H]2CC[C@@H](c4cc(F)cc(F)c4)N2C3=O)n1 [Example 6.104, (5′S,7a′R)-5′-(3,5-difluorophenyl)-1-(3-fluoro-6-methylpyri-dine-2-carbonyl)tetra-hydro-3′H-spiro[piperi-dine-4,2′-pyrrolo[2,1-b][1,3]oxazol]-3′-one] | 32.2 nM |
| CC(C)OC(=O)c1ccc(N2CCC3(CC2)O[C@@H]2CC[C@@H](c4ccccc4)N2C3=O)nc1 [Example 4.190, propan-2-yl 6-[(5′S,7a′R)-3′-oxo-5′-phenyltetrahydro-1H,3′H-spiro[piperidine-4,2′-pyrrolo[2,1-b] [1,3]oxazol]-1-yl]pyridine-3-carboxylate] | 92.6 nM |
| O=C(c1ccccc1)N1CCC2(CC1)CC1COC(c3cc(F)cc(F)c3)N1C2=O (stereo not drawn) [Example 6.163, 1-(benzenecarbonyl)-3′-(3,5-difluoro-phenyl)dihydro-1′H,3′H,5′H-spiro [piperidine-4,6′-pyrrolo[1,2-c][1,3]oxazol]-5′-one] | 29.1 nM |
| O=C(c1cccc(N2CCCC2)n1)N1CCC2(CC1)O[C@@H]1CC[C@@H](c3cc(F)cc(F)c3)N1C2=O [Example 6.96, (5′S,7a′R)-5′-(3,5-difluorophenyl)-1-[6-(pyrrolidin-1-yl)pyri-dine-2-carbonyl]tetra-hydro-3′H-spiro[piperi-dine-4,2′-pyrrolo[2,1-b][1,3]oxazol]-3′-one] | 31.6 nM |
| O=C1N2[C@@H](CC[C@H]2c2cc(F)cc(F)c2)OC12CCN(c1ncc(F)c(C3CC3)n1)CC2 [Example 4.65, (5′S,7a′R)-1-(4-cyclopropyl-5-fluoropyrimidin-2-yl)-5′-(3,5-difluorophenyl)tetrahydro-3′H-spiro[piperidine-4,2′-pyrrolo[2,1-b] [1,3]oxazol]-3′-one] | 164 nM |
| O=C(c1ccccc1)N1CCC2(O[C@@H]3CC[C@@H](c4ccccc4)N3C2=O)C(F)C1 (single isomer, unassigned) [Example 2.3, (3[S or R],4[R or S], 5′S,7a′R)-1-benzoyl-3-fluoro-5′-phenyltetrahydro-3′H-spiro[piperidine-4,2′-pyrrolo[2,1-b]oxazol]-3′-one] | < 25 nM |
| O=C(c1cc(F)ccc1F)N1CC2(C1)O[C@@H]1CC[C@@H](c3cc(F)cc(F)c3)N1C2=O [Example 1.20, (5′S,7a′R)-1-(2,5-difluorobenzoyl)-5′-(3,5-difluorophenyl)tetrahydro-3′H-spiro[azetidine-3,2′-pyrrolo[2,1-b]oxazol]-3′-one] | 41.7 nM |
| O=C(c1cc(C(F)(F)F)cnn1)N1CCC2(CC1)O[C@@H]1CC[C@@H](c3cc(F)cc(F)c3)N1C2=O [Example 6.34, (5′S,7a′R)-5′-(3,5-difluorophenyl)-1-[5-(trifluoromethyl)pyrid-azine-3-carbonyl] tetrahydro-3′H-spiro [piperidine-4,2′-pyrrolo[2,1-b][1,3]oxazol]-3′-one] | 550 nM |
| O=C1N2[C@@H](CC[C@H]2c2cc(F)cc(F)c2)OC12CCN(c1ncc(F)c(C(F)F)n1)CC2 [Example 4.66, (5′S,7a′R)-1-[4-(difluoromethyl)-5-fluoropyrimidin-2-yl]-5′-(3,5-difluorophenyl)tetrahydro-3′H-spiro[piperidine-4,2′-pyrrolo[2,1-b] [1,3]oxazol]-3′-one] | 38.4 nM |
| Cc1cnn(-c2cc(N3CCC4(CC3)O[C@@H]3CC[C@@H](c5ccccc5)N3C4=O)ncn2)c1 [Example 4.26, (5′S,7a′R)-1-[6-(4-methyl-1H-pyrazol-1-yl)pyrimidin-4-yl]-5′-phenyltetrahydro-3′H-spiro[piperidine-4,2′-pyrrolo[2,1-b] [1,3]oxazol]-3′-one] | 24.6 nM |
| O=C1N2[C@@H](CC[C@H]2c2ccccc2)OC12CCN(c1ncc(-c3ncco3)cn1)CC2 [Example 21.15, (5′S,7a′R)-1-[5-(1,3-oxazol-2-yl)pyrimidin-2-yl]-5′-phenyltetrahydro-3′H-spiro[piperidine-4,2′-pyrrolo[2,1-b][1,3]oxazol]-3′-one] | < 25 nM |
| O=C(c1ccccc1)N1CCC2(CC1)O[C@@H]1CC[C@@H](c3ccc(F)cc3F)N1C2=O [Example 17.14, (5′S,7a′R)-1-(benzenecarbonyl)-5′-(2,4-difluorophenyl)tetrahydro-3′H-spiro[piperidine-4,2′-pyrrolo[2,1-b][1,3]oxazol]-3′-one] | < 25 nM |
| CC1CN(c2cccc3ncnn23)CCC12O[C@@H]1CC[C@@H](c3ccccc3)N1C2=O (stereo partly drawn) [Example 4.244, (4R,5′S,7a′R)-3-methyl-5′-phenyl-1-([1,2,4]triazolo[1,5-a]pyridin-5-yl)tetrahydro-3′H-spiro[piperidine-4,2′-pyrrolo[2,1-b] [1,3]oxazol]-3′-one] | < 25 nM |
| CSc1nc(C)cc(N2CCC3(CC2)O[C@@H]2CC[C@@H](c4ccccc4)N2C3=O)n1 [Example 4.36, (5′S,7a′R)-1-[6-methyl-2-(methylsulfanyl)pyrimidin-4-yl]-5′-phenyltetrahydro-3′H-spiro[piperidine-4,2′-pyrrolo[2,1-b] [1,3]oxazol]-3′-one] | 37.4 nM |
| C#Cc1cccc(C(=O)N2CCC3(CC2)O[C@@H]2CC[C@@H](c4cccc(F)c4)N2C3=O)c1 [Example 6.123, (5′S,7a′R)-1-(3-ethynylbenzene-1-carbonyl)-5′-(3-fluoro-phenyl)tetrahydro-3′H-spiro[piperidine-4,2′-pyrrolo[2,1-b][1,3]oxazol]-3-one] | < 25 nM |
| O=C1N2[C@@H](CC[C@H]2c2ccccc2)OC12CCN(c1ccc(OC3CCC3)nn1)CC2 [Example 11.9, (5′S,7a′R)-1-[6-(cyclobutyloxy)pyridazin-3-yl]-5′-phenyltetrahydro-3′H-spiro[piperidine-4,2′-pyrrolo[2,1-b][1,3]oxazol]-3′-one] | 907 nM |
| COC(=O)N1CCC2(CC1)O[C@@H]1CC[C@@H](c3cc(F)cc(F)c3)N1C2=O [Example 1.2, methyl (5′S,7a′R)-5′-(3,5-difluorophenyl)-3′-oxotetrahydro-1H,3′H-spiro[piperidine-4,2′-pyrrolo[2,1-b] [1,3]oxazole]-1-carboxylate] | 115 nM |
| Cc1cnn(-c2cc(N3CCC4(CC3)O[C@@H]3CC[C@@H](c5ccccc5)N3C4=O)ncn2)c1 [Example 4.176, (5′S,7a′R)-1-[6-(4-methyl-1H-pyrazol-1-yl)pyrimidin-4-yl]-5′-phenyltetrahydro-3′H-spiro[piperidine-4,2′-pyrrolo[2,1-b] [1,3]oxazol]-3′-one] | 48.8 nM |
